In ChEMBL document CHEMBL1201862, “PubChem BioAssay data set” (2004):
Activity calls are given as the source filed them.

What was measured:
[1] = target: Neuropeptide Y receptor type 2 (Homo sapiens, UniProt P49146); test: Fluorescence-based counterscreen for agonists of NPY-Y1: cell-based high-throughput dose response assay for agonists of NPY-Y2.; assay type: functional
[2] = target: Neuropeptide Y receptor type 1 (Homo sapiens, UniProt P25929); test: Fluorescence-based dose response cell-based high-throughput screening assay for agonists of NPY-Y1. [Related pubchem assays: 1697 (Screening assay (NPY-Y1 agonists).), 1359 (Screening assay (NPY-Y2 potentiators or agonists).), 1304 (Screening assay (NPY-Y1 potentiators or agonists).), 1704 (Screening assay (CNGC inhibitors).), 1791 (Summary AID.)]; assay type: functional
[3] = test system: HEK293; test: Fluorescence-based counterscreen for potentiators or agonists of NPY-Y1: cell-based high-throughput dose response assay for inhibitors of cyclic nucleotide gated ion channel (CNGC) activity. In this assay, the parental HEK293 cell line transfected with a cyclic-nucleotide gated ion channel (CNGC)-based cAMP sensor is used to measure inhibition of isoproterenol-induced CNGC …; assay type: functional; conditions: Homo sapiens
[4] = target: Mitochondrial peptide methionine sulfoxide reductase (Bos taurus, UniProt P54149); test: Absorbance-based biochemical high throughput dose response assay for activators of Methionine sulfoxide reductase A (MsrA).; assay type: functional
[5] = inhibitors of intracellular T. cruzi replication, confirmation, NIH3T3 host cells, beta-gal luminescence (AID 2044); assay type: functional, cell-based;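 also: intracellular parasites grown in NIH/3T3 mouse fibroblasts as host cells; luminescent beta-galactosidase reporter signal from transgenic T. cruzi replicating inside host cells; inhibitors lower the luminescence signal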
[6] = target: Heat shock protein HSP 90-alpha (Homo sapiens, UniProt P07900); assay type: functional, organism-based
[7] = target: Transitional endoplasmic reticulum ATPase (Homo sapiens, UniProt P55072); test: p97 ATPase inhibitors, dose response, biochemical (AID 1534)
[8] = cytotoxicity toward NIH3T3 fibroblasts, dose response, counter-screen, cell-based, ATP luminescence, mouse fibroblasts (AID 2010); assay type: functional;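 also: cells exposed to compound for about 90 hours before reading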
[9] = cells; assay type: functional
[10] = target: Transitional endoplasmic reticulum ATPase (Homo sapiens, UniProt P55072, C522A); test: C522A mutant p97 ATPase inhibitors, dose response, counter-screen for p97 inhibitor project, biochemical, luminescence (AID 1544)
[11] = target: Acyl-homoserine lactone acylase PvdQ (Pseudomonas aeruginosa (strain LESB58), UniProt Q9I194); test: P. aeruginosa PvdQ acylase inhibitors, dose response, biochemical, fluorescence, plate reader and imaging, cherry-picks (AID 493231)
[12] = target: T1, Alkaline phosphatase, tissue-nonspecific isozyme (Homo sapiens, UniProt P05186)
T1 sequence (P05186 whole entry): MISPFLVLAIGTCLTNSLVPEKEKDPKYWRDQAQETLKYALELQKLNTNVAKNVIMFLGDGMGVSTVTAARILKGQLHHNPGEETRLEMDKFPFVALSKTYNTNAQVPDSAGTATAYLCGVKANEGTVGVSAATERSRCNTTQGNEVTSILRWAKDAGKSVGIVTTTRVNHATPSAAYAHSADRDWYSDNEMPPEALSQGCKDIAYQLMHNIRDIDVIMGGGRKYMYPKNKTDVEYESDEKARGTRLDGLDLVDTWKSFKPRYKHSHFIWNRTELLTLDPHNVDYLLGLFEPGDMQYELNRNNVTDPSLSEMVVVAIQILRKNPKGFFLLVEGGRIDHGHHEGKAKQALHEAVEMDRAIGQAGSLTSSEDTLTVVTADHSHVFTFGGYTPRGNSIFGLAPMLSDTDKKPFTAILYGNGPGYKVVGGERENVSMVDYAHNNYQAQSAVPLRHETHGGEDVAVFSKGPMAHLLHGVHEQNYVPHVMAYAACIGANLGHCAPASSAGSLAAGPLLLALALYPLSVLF

[13] = target: T2, Polyadenylate-binding protein 1 (Homo sapiens, UniProt P11940); test: PABP1 MLLE–PAM2 interaction inhibitors, dose response, miRNA deadenylation inhibitor project, biochemical, fluorescence polarization, Cy5-PAM2 peptide, secondary (AID 602260); assay type: functional; conditions: read-out: IC50_Mean
[14] = target: T3, Sentrin-specific protease 1 (Homo sapiens, UniProt Q9P0U3); test: potency of human SENP1 inhibitors, dose response, biochemical, kinetic FRET (AID 651697); assay type: functional; conditions: read-out: IC50_Mean
T3 sequence (Q9P0U3 whole entry): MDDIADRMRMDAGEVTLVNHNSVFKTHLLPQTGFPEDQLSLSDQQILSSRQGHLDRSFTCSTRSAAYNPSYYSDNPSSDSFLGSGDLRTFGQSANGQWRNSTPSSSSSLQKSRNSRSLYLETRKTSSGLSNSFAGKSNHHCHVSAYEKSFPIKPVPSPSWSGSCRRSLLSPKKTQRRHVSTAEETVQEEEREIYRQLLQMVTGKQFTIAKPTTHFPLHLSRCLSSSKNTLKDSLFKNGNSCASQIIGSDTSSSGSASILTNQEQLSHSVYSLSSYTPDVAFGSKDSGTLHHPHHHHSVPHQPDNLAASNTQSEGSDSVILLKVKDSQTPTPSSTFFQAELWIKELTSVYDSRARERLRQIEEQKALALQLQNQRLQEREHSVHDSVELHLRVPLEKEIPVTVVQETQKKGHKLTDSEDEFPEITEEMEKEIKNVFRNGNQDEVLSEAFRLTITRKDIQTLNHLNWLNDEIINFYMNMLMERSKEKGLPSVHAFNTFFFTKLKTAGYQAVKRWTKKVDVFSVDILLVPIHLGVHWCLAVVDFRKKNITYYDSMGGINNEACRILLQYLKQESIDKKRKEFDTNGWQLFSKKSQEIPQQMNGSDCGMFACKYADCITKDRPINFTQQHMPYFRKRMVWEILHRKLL

[15] = target: T2, Polyadenylate-binding protein 1; test: PABP1 MLLE–PAM2 binding inhibitor potency, dose response, biochemical, fluorescence polarization, FITC-PAM2 peptide (AID 602259); assay type: functional; conditions: read-out: IC50_Mean
[16] = target: T4, Corticotropin-releasing factor receptor 2/Corticotropin-releasing factor-binding protein (Homo sapiens, UniProt P24387+Q13324); test: activators of CRF receptor 2 with binding protein – uHTS hits, confirmation (AID 602473); assay type: functional; conditions: read-out: EC50_Mean
T4 sequence (Q13324 whole entry): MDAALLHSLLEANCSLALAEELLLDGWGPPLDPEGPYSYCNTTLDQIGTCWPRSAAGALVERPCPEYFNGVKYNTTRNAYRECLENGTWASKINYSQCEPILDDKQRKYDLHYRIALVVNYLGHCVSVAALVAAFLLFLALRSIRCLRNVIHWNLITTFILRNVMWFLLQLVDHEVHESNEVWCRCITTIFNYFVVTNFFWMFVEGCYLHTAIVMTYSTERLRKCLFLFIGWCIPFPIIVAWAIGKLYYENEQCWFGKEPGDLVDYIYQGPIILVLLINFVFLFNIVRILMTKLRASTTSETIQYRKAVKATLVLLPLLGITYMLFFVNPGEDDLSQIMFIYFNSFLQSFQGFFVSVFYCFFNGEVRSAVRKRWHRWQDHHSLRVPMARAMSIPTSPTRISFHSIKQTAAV
T4 sequence (P24387 whole entry): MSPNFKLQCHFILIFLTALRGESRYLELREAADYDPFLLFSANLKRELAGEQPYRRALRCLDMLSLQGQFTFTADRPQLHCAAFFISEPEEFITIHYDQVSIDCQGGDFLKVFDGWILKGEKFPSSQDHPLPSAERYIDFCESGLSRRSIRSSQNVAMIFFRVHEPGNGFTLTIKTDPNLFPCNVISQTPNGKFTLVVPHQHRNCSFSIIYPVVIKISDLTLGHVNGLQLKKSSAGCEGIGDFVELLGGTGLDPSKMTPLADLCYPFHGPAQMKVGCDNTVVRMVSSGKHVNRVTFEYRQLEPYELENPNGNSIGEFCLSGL

[17] = target: T3, Sentrin-specific protease 1; test: Dose response confirmation of small molecule inhibitors of the catalytic domain of the SUMO protease, SENP1 in a FRET assay.; assay type: functional; conditions: read-out: IC50_Mean
[18] = target: Protein Rev (Human immunodeficiency virus type 1 group M subtype B (isolate HXB2)(HIV-1), UniProt P04618); test: inhibitors of Rev binding to RRE RNA, dose response, biochemical, fluorescence polarization, HIV-1 (AID 434976); set-up: species or system Human immunodeficiency virus 1
[19] = target: Female germline-specific tumor suppressor gld-1 (Caenorhabditis elegans, UniProt Q17339); test: inhibitors of GLD-1 binding to TGE RNA, dose response, biochemical, fluorescence polarization, C. elegans (AID 2802);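 also: fluorescence polarization of labeled TGE RNA bound by purified gld-1 protein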
[20] = A549 cell cytotoxicity, dose response, cytotoxicity control, plate reader, cherry-pick, antagonist series (AID 743412); assay type: functional, cell-based
[21] = HEK293 cell cytotoxicity, dose response, cytotoxicity control, plate reader, cherry-picked samples (AID 743446); assay type: functional, cell-based
[22] = HepG2 cell cytotoxicity, dose response, cytotoxicity control, plate reader, cherry-pick, antagonist series (AID 743416); assay type: functional, cell-based
[23] = test system: HEK293; test: PMA/Ionomycin induced NF-kB luciferase assay in 293- NF-kB-Luc stable cells. [Related pubchem assays: 1299, 1270, 1295, 1375, 1287, 1281, 1293, 1291, 1289, 1280, 465, 1364, 1282, 1372, 1365, 1370, 1367, 1366, 1269, 1373, 1292, 1290, 1302, 1371, 1283, 1271, 1294, 1374, 1368, 1369 ]; assay type: functional, cell-based; conditions: Homo sapiens
[24] = target: Luciferin 4-monooxygenase (Photinus pyralis, UniProt P08659); test: In vitro luciferase assay using purified luciferase. [Related pubchem assays: 1299, 1270, 1295, 1375, 1287, 1281, 1293, 1291, 1289, 1280, 465, 1364, 1282, 1372, 1365, 1370, 1367, 1366, 1266, 1373, 1292, 1290, 1302, 1371, 1283, 1271, 1294, 1374, 1368, 1369 ]
[25] = MC4R antagonists, dose response, counter-screen for LGR2 antagonist project, cell-based, plate reader, cherry pick (AID 743444); assay type: functional;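 also: transfected HEK 293 cells stimulated with alpha-MSH peptide; potency of inhibitors of the alpha-MSH evoked signal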
[26] = target: Photoreceptor-specific nuclear receptor (Homo sapiens, UniProt Q9Y5X4); assay type: functional, cell-based;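 also: CHO-S cells with Gal4-NCOR and VP16-NR2E3 two-hybrid luciferase reporter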
[27] = test system: HEK293; test: Cytotoxicity assay in HEK293 cells. [Related pubchem assays (depositor defined):AID1266, AID1269, AID1270, AID1271, AID1280, AID1281, AID1282, AID1283, AID1287, AID1289, AID1290, AID1291, AID1292, AID1293, AID1294, AID1295, AID1299, AID1302, AID1364, AID1365, AID1366, AID1367, AID1369, AID1370, AID1371, AID1372, AID1373, AID1374, AID1375, AID1384 …; assay type: functional, cell-based; conditions: Homo sapiens
[28] = LGR2 antagonists, dose response, cell-based, HEK293, CRE-luciferase reporter, cherry pick, set 2 (AID 743343); assay type: functional;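 also: transfected cells were stimulated with diluted bursicon conditioned medium after compound addition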
[29] = test system: HEK293; test: TNF Induced NF-kB Luciferase in 293-NF-kB-Luc Stable Cells. [Related pubchem assays: 1266, 1299, 1269, 1373, 1292, 1290, 1302, 1371, 1283, 1270, 1295, 1271, 1375, 1294, 1374, 1281, 1293, 1291, 1289, 1280, 465, 1368, 1364, 1282, 1372, 1365, 1369, 1370, 1367, 1366 ]; assay type: functional, cell-based; conditions: Homo sapiens
[30] = target: T5, Neuropeptides B/W receptor type 1 (Homo sapiens, UniProt P48145); test: GPR7 antagonist potency, late-stage follow-up, cell-based, fluorescence, dose response (AID 463251); assay type: functional
T5 sequence (P48145 whole entry): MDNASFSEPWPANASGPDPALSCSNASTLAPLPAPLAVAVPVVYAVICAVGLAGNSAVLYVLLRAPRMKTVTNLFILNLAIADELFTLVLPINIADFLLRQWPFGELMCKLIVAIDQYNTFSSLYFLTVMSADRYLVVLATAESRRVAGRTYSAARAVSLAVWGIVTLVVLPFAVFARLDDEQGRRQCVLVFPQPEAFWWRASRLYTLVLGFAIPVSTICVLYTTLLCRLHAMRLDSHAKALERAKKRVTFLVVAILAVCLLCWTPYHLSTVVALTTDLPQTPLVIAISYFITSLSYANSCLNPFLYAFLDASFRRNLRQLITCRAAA

[31] = target: Melanin-concentrating hormone receptor 1 (Homo sapiens, UniProt Q99705); test: Late-stage fluorescence-based counterscreen for antagonists of the G-protein coupled receptor 7 (GPR7): cell-based dose response assay to identify antagonists of the melanin-concentrating hormone receptor 1 (MCHR1). [Related pubchem assays (depositor defined):AID1861, AID1880, AID1952, AID2148, AID2251, AID2257, AID485339]; assay type: functional;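 also: stimulated with 30 nM MCH peptide agonist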
Melanin-concentrating hormone receptor 1, sequence (Q99705 whole entry): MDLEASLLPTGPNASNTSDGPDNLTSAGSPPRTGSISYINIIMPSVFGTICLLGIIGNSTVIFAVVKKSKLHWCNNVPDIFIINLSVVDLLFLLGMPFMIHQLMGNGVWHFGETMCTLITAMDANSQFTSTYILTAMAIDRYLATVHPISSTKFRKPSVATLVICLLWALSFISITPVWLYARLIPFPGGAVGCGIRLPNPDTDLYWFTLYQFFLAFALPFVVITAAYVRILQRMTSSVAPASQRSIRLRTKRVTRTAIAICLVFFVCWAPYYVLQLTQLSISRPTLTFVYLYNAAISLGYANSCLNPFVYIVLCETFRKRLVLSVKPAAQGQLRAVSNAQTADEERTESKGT

T2 sequence (P11940 whole entry): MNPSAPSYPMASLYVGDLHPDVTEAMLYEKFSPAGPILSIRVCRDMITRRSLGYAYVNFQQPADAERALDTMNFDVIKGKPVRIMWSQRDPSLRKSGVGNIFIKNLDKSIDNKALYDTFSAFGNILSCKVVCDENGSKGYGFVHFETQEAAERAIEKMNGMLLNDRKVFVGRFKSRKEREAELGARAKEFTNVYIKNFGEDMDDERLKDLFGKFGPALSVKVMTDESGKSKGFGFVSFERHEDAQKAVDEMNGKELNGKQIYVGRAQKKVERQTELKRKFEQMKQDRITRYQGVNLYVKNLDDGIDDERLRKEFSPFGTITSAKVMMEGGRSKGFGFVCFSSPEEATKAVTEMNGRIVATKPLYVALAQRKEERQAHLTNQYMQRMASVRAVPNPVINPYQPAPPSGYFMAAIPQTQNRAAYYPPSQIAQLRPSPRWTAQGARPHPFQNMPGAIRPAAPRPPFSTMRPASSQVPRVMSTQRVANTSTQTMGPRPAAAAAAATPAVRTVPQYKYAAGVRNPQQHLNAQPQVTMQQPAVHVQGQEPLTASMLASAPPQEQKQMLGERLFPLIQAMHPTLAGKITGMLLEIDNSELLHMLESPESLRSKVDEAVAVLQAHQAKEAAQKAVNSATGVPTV
Female germline-specific tumor suppressor gld-1, sequence (Q17339 whole entry): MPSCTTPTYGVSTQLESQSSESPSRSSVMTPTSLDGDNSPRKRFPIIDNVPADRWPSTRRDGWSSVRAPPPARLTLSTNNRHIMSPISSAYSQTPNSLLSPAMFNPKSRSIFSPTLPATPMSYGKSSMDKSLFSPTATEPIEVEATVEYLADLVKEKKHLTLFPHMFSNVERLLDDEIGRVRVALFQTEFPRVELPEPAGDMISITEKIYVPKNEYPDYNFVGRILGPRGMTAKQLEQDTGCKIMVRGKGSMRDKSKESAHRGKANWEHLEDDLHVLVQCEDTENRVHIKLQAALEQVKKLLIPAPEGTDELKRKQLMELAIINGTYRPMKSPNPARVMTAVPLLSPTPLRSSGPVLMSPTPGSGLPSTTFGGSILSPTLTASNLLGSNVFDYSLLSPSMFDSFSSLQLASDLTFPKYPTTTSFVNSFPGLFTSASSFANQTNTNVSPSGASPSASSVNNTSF
Transitional endoplasmic reticulum ATPase (Homo sapiens, UniProt P55072), sequence (P55072 whole entry): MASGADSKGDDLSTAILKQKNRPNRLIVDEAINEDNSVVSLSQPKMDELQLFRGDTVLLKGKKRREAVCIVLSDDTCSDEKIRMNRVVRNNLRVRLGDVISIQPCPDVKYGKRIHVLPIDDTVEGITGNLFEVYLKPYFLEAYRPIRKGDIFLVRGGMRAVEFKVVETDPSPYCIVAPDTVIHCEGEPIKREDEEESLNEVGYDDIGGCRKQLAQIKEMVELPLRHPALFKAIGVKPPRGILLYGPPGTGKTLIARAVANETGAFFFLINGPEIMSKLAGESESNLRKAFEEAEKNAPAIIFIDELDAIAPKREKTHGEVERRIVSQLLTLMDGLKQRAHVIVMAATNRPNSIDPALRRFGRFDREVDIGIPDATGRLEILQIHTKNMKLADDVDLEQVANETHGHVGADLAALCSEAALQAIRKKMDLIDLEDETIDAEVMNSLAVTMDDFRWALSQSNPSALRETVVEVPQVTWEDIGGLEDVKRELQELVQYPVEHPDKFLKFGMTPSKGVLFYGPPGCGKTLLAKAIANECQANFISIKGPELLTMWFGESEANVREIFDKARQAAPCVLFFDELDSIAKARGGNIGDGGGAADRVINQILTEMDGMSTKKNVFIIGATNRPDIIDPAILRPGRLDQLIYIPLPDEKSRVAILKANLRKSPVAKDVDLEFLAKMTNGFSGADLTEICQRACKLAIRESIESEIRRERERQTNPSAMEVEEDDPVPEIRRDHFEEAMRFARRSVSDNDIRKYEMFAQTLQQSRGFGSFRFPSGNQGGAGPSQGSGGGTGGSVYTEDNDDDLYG
Neuropeptide Y receptor type 2, sequence (P49146 whole entry): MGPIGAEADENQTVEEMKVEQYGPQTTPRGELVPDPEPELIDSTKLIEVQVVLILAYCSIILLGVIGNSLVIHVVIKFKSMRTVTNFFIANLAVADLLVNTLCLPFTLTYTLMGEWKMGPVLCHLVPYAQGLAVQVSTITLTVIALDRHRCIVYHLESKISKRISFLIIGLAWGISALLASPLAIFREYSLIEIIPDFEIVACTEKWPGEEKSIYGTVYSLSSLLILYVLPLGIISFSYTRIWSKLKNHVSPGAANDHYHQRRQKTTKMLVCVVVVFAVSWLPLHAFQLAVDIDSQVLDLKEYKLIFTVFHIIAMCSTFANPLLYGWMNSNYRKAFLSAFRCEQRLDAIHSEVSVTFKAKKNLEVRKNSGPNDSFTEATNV
Transitional endoplasmic reticulum ATPase (Homo sapiens, UniProt P55072, C522A), sequence (P55072 2-806 C522A limits assumed): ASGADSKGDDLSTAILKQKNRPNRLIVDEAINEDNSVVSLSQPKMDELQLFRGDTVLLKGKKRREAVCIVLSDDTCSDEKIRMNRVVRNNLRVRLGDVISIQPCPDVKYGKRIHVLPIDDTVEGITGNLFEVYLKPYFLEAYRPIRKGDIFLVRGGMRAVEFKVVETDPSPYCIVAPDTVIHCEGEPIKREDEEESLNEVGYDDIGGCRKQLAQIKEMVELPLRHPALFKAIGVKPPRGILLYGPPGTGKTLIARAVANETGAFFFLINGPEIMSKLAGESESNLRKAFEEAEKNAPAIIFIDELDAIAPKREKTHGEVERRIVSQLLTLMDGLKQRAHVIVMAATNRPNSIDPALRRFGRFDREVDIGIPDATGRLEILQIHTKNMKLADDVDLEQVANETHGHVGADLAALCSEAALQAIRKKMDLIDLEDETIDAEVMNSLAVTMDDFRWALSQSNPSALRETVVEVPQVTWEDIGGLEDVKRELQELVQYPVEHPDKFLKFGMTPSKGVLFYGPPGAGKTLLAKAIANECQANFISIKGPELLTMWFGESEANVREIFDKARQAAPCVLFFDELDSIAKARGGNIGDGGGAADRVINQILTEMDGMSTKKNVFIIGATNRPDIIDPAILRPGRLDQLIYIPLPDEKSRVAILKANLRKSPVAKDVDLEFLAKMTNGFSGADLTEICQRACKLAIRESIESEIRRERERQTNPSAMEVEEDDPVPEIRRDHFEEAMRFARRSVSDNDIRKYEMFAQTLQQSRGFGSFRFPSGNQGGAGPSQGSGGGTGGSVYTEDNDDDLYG
Protein Rev, sequence (P04618 whole entry): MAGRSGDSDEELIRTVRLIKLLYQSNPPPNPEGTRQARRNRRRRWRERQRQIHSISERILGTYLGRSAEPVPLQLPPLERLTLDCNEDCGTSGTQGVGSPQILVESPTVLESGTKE
Acyl-homoserine lactone acylase PvdQ, sequence (Q9I194 24-193 limits assumed): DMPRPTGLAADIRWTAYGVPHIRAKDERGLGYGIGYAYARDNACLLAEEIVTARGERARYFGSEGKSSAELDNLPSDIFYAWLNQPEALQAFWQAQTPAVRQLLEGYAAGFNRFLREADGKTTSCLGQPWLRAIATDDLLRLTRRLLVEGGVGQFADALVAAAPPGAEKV
Acyl-homoserine lactone acylase PvdQ, sequence (Q9I194 217-762 limits assumed): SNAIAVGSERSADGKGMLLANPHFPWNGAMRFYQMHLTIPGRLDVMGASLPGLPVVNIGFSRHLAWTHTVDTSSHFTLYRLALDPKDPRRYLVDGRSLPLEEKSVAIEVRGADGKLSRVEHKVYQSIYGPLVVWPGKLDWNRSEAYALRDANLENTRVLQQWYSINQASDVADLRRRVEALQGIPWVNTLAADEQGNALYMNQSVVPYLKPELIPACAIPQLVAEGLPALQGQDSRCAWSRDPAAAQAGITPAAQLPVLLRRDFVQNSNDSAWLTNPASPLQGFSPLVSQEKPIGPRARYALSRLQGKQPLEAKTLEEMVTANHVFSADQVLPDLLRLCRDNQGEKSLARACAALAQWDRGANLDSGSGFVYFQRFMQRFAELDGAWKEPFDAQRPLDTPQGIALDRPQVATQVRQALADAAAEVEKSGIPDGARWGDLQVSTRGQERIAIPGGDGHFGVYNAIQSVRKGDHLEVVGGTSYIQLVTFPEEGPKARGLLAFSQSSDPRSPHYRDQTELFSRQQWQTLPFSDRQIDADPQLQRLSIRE
Photoreceptor-specific nuclear receptor, sequence (Q9Y5X4 whole entry, the tested form may be a part): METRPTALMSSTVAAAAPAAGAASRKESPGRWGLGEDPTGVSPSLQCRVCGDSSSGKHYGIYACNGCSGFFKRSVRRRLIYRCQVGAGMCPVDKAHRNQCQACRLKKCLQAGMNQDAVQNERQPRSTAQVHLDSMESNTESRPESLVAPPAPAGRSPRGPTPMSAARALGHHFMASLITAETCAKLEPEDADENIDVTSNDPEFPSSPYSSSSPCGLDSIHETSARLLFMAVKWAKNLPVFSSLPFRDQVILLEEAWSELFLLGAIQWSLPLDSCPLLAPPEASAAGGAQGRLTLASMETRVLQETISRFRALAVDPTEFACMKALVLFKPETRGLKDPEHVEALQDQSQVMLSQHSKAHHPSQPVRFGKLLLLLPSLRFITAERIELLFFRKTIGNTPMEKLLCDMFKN
Mitochondrial peptide methionine sulfoxide reductase, sequence (P54149 whole entry): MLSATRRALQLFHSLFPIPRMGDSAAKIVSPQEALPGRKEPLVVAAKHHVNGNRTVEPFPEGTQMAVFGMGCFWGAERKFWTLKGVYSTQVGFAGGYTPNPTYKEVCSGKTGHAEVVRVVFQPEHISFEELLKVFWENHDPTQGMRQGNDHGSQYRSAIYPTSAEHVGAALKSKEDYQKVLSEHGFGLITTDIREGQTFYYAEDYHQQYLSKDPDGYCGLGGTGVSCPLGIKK

## CC(C)(C)NC(=O)C(c1ccc(O)cc1)N(C(=O)Cn1nnc(-c2ccc(F)cc2)n1)c1ccccc1F (stereo unspecified)
[1]
  EC50: > 35.4 µM (not active)
[2]
  EC50: > 35.4 µM (not active)
[3]
  IC50: 16.8 µM (not active)

## O=C(OCC(=O)c1c[nH]c2ccccc12)c1ccc([N+](=O)[O-])s1
[4]
  EC50: 36.4 µM (inactive)
[5]
  EC50: 1.04 µM (active)
[6]
  AC50: 3.8 µM (active)
[7]
  IC50: > 50 µM (not active)
[8]
  EC50: > 60 µM (not active)
[9]
  IC50: 1.62 µM (active)
[10]
  IC50: > 50 µM (not active)

## Clc1cccc(CNCCCSc2ncccn2)c1
[11]
  AC50: 6.84 µM (active)

## Cc1c(Cl)c(C(=O)NNC(=S)Nc2ccccc2)nn1C
[12]
  EC50: 50.5 µM (not active)

## O=C1C2=C(SCCS2)C(=O)N1CCCO
[13]
  IC50: > 66 µM (inactive)
[14]
  IC50: 20.5 µM (inactive)
[15]
  IC50: 28 µM (inactive)
[16]
  EC50: > 53 µM (inactive)
[17]
  IC50: 35.2 µM (inactive)
[18]
  IC50: > 75.4 µM (not active)
[19]
  IC50: 4.07 µM (active)

## Clc1ccc(-n2ncc3c(N4CCCCCC4)ncnc32)cc1
[20]
  AC50: > 52 µM (inactive)
[21]
  AC50: > 52 µM (inactive)
[22]
  AC50: > 52 µM (inactive)
[23]
  EC50: 2.77 µM (active)
[24]
  EC50: > 8 µM (not active)
[25]
  AC50: < 0.068 µM (active)
[26]
  IC50: 4.43 µM (active)
[27]
  EC50: > 13.2 µM (inactive)
[28]
  AC50: < 0.068 µM (active)
[29]
  EC50: 3.73 µM (active)

## Cc1cccc(CN2CCCCC2C(=O)N2CCN(c3ccc([N+](=O)[O-])cc3)CC2)c1 (stereo unspecified)
[30]
  IC50: 10 µM (active)
[31]
  IC50: 6.1 µM (active)
